Source: patent US6355799B1, “Substituted benzene compounds, process for their preparation, and herbicidal and defoliant compositions containing them” (ISK Americas Incorporated, priority 1997, dated 2002)

Experiments:
Format in all cases: in vivo
[1] = test system: field corn (Zea mays L., var. Dekalb 535, CORN); experiment: Post-emerge test, crop safety; details: post-emerge, 14 days after application, rating scale 0-100
Procedure, shortened: (§1)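 Fourteen days after spraying, crop and weed injury was graded visually from 0, no effect, to 100, every plant dead. Test substances were dissolved in acetone and applied at 15–1000 g ai/ha with a flat-fan nozzle. Application was either pre-emergence, one day after sowing, or post-emergence at the 2–3 leaf stage.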

[2] = test system: upland rice (Oryza sp., var. Tebonnet, RICE); experiment: Post-emerge test, crop safety; details: post-emerge, 14 days after application, rating scale 0-100
Procedure, shortened: as §1

[3] = test system: redroot pigweed (Amaranthus retroflexus, AMARE); experiment: Pre-emerge test, greenhouse herbicide activity screening; details: rated 14 days after application, 0 = no damage, 100 = complete death
Procedure, shortened: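 Compounds in acetone were track-sprayed at 15-1000 g ai/ha (187 l/ha) on sandy loam pots: pre-emerge one day after seeding, post-emerge at 2-3 leaf stage with 0.25% v/v non-ionic surfactant. Phytotoxicity was rated 14 days later on a 0 (no damage) to 100 (complete death) scale.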

[4] = test system: velvetleaf (Abutilon theophrasti, ABUTH); experiment: Post-emerge test, greenhouse herbicide activity screening; details: post-emerge, 14 days after application, rating scale 0-100
Procedure, shortened: (§2)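 Compounds in acetone were track-sprayed at 187 l/ha, 15–1000 g ai/ha, onto sandy loam pots. Pre-emerge seeds were sown one day before spraying, with surface watering afterwards. Post-emerge plants were at the 2–3 leaf stage and sprayed with 0.25% v/v non-ionic surfactant. Injury was rated 0–100 at 14 days.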

[5] = test system: sicklepod (Cassia obtusifolia, CASOB); experiment: as above; details: post-emerge, 14 days after application, rating scale 0-100
Procedure, shortened: as §2

[6] = test system: lambsquarters (Chenopodium album, CHEAL); experiment: as above; details: post-emerge, 14 days after application, rating scale 0-100
Procedure, shortened: as §2

[7] = test system: ivyleaf morningglory (Ipomoea hederacea, IPOHE); experiment: as above; details: post-emerge, 14 days after application, rating scale 0-100
Procedure, shortened: as §2

[8] = test system: green foxtail (Setaria viridis, SETVI); experiment: as above; details: post-emerge, 14 days after application, rating scale 0-100
Procedure, shortened: as §2

[9] = test system: large crabgrass (Digitaria sanguinalis, DIGSA); experiment: as above; details: post-emerge, 14 days after application, rating scale 0-100
Procedure, shortened: as §2

[10] = test system: barnyardgrass (Echinochloa crus-galli, ECHCG); experiment: as above; details: post-emerge, 14 days after application, rating scale 0-100
Procedure, shortened: as §2

[11] = test system: common ragweed (Ambrosia artemisizfolia L., AMBEL); experiment: as above; details: post-emerge, 14 days after application, rating scale 0-100
Procedure, shortened: as §2

[12] = test system: johnsongrass (Sorghum halepense, SORHA); experiment: as above; details: post-emerge, 14 days after application, rating scale 0-100
Procedure, shortened: as §2

[13] = test system: redroot pigweed (Amaranthus retroflexus, AMARE); experiment: as above; details: post-emerge, 14 days after application, rating scale 0-100
Procedure, shortened: as §2

[14] = test system: velvetleaf (Abutilon theophrasti, ABUTH); experiment: Pre-emerge test, greenhouse herbicide activity screening; details: rated 14 days after application, 0 = no damage, 100 = complete death
Procedure, shortened: as §1

[15] = test system: sicklepod (Cassia obtusifolia, CASOB); experiment: as above; details: rated 14 days after application, 0 = no damage, 100 = complete death
Procedure, shortened: as §1

[16] = test system: lambsquarters (Chenopodium album, CHEAL); experiment: as above; details: rated 14 days after application, 0 = no damage, 100 = complete death
Procedure, shortened: as §1

[17] = test system: ivyleaf morningglory (Ipomoea hederacea, IPOHE); experiment: as above; details: rated 14 days after application, 0 = no damage, 100 = complete death
Procedure, shortened: as §1

[18] = test system: green foxtail (Setaria viridis, SETVI); experiment: as above; details: rated 14 days after application, 0 = no damage, 100 = complete death
Procedure, shortened: as §1

[19] = test system: large crabgrass (Digitaria sanguinalis, DIGSA); experiment: as above; details: rated 14 days after application, 0 = no damage, 100 = complete death
Procedure, shortened: as §1

[20] = test system: barnyardgrass (Echinochloa crus-galli, ECHCG); experiment: as above; details: rated 14 days after application, 0 = no damage, 100 = complete death
Procedure, shortened: as §1

[21] = test system: common ragweed (Ambrosia artemisizfolia L., AMBEL); experiment: as above; details: rated 14 days after application, 0 = no damage, 100 = complete death
Procedure, shortened: as §1

[22] = test system: johnsongrass (Sorghum halepense, SORHA); experiment: as above; details: rated 14 days after application, 0 = no damage, 100 = complete death
Procedure, shortened: as §1

[23] = test system: field corn (Zea mays L., var. Dekalb 535, CORN); experiment: Pre-emerge test, crop safety; details: rated 14 days after application, 0 = no damage, 100 = complete death
Procedure, shortened: (§3)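 Sandy loam pots; pre-emerge: sown 1 d pre-spray, surface-watered after, then bottom-watered. Post-emerge: sown 8–21 d before, 2–3 leaf stage, + 0.25% v/v NIS, bottom-watered. Acetone, 187 l/ha track spray, 15–1000 g ai/ha. 0–100 injury score, day 14.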

[24] = test system: upland rice (Oryza sp., var. Tebonnet, RICE); experiment: Pre-emerge test, crop safety; details: rated 14 days after application, 0 = no damage, 100 = complete death
Procedure, shortened: as §3

Question: `COc1c(Cl)cc(F)c(-n2c(=O)cc(C(F)(F)F)n(C)c2=O)c1NC(=O)c1ccc(F)cc1` [2-40] was tested. Which “phytotoxicity rating CORN” value ([1]; 63 g ai/ha) did it give?
Answer: 40

Question: What about the “phytotoxicity rating CORN” value ([1]; 250 g ai/ha) of the same molecule?
Answer: 90

Question: What about the “phytotoxicity rating RICE” value ([2]; 63 g ai/ha) of the same molecule?
Answer: 50

Question: And the “phytotoxicity rating RICE” value ([2]; 250 g ai/ha)?
Answer: 95

Question: What about the “Pre-emerge Herbicidal Activity, phytotoxicity rating (0-100), AMARE” value ([3]; 63 g ai/ha) of the same molecule?
Answer: 100

Question: And the “Pre-emerge Herbicidal Activity, phytotoxicity rating (0-100), AMARE” value ([3]; 250 g ai/ha)?
Answer: 100

Question: And the “phytotoxicity rating ABUTH” value ([4]; 63 g ai/ha)?
Answer: 100

Question: And the “phytotoxicity rating ABUTH” value ([4]; 250 g ai/ha)?
Answer: 100

Question: And the “phytotoxicity rating CASOB” value ([5]; 63 g ai/ha)?
Answer: 50

Question: And the “phytotoxicity rating CASOB” value ([5]; 250 g ai/ha)?
Answer: 90

Question: What about the “phytotoxicity rating CHEAL” value ([6]; 63 g ai/ha) of the same molecule?
Answer: 80

Question: And the “phytotoxicity rating CHEAL” value ([6]; 250 g ai/ha)?
Answer: 95

Question: What about the “phytotoxicity rating IPOHE” value ([7]; 63 g ai/ha) of the same molecule?
Answer: 100

Question: And the “phytotoxicity rating IPOHE” value ([7]; 250 g ai/ha)?
Answer: 100

Question: And the “phytotoxicity rating SETVI” value ([8]; 63 g ai/ha)?
Answer: 10

Question: What about the “phytotoxicity rating SETVI” value ([8]; 250 g ai/ha) of the same molecule?
Answer: 90

Question: What about the “phytotoxicity rating DIGSA” value ([9]; 63 g ai/ha) of the same molecule?
Answer: 10

Question: What about the “phytotoxicity rating DIGSA” value ([9]; 250 g ai/ha) of the same molecule?
Answer: 90

Question: What about the “phytotoxicity rating ECHCG” value ([10]; 63 g ai/ha) of the same molecule?
Answer: 0

Question: What about the “phytotoxicity rating ECHCG” value ([10]; 250 g ai/ha) of the same molecule?
Answer: 100

Question: And the “phytotoxicity rating AMBEL” value ([11]; 63 g ai/ha)?
Answer: 80

Question: And the “phytotoxicity rating AMBEL” value ([11]; 250 g ai/ha)?
Answer: 100

Question: What about the “phytotoxicity rating SORHA” value ([12]; 63 g ai/ha) of the same molecule?
Answer: 30

Question: What about the “phytotoxicity rating SORHA” value ([12]; 250 g ai/ha) of the same molecule?
Answer: 100

Question: What about the “phytotoxicity rating AMARE” value ([13]; 63 g ai/ha) of the same molecule?
Answer: 90

Question: And the “phytotoxicity rating AMARE” value ([13]; 250 g ai/ha)?
Answer: 100

Question: What about the “Pre-emerge Herbicidal Activity, phytotoxicity rating (0-100), ABUTH” value ([14]; 63 g ai/ha) of the same molecule?
Answer: 100

Question: And the “Pre-emerge Herbicidal Activity, phytotoxicity rating (0-100), ABUTH” value ([14]; 250 g ai/ha)?
Answer: 100

Question: And the “Pre-emerge Herbicidal Activity, phytotoxicity rating (0-100), CASOB” value ([15]; 63 g ai/ha)?
Answer: 80

Question: And the “Pre-emerge Herbicidal Activity, phytotoxicity rating (0-100), CASOB” value ([15]; 250 g ai/ha)?
Answer: 100

Question: And the “Pre-emerge Herbicidal Activity, phytotoxicity rating (0-100), CHEAL” value ([16]; 63 g ai/ha)?
Answer: 100

Question: What about the “Pre-emerge Herbicidal Activity, phytotoxicity rating (0-100), CHEAL” value ([16]; 250 g ai/ha) of the same molecule?
Answer: 100

Question: And the “Pre-emerge Herbicidal Activity, phytotoxicity rating (0-100), IPOHE” value ([17]; 63 g ai/ha)?
Answer: 90

Question: And the “Pre-emerge Herbicidal Activity, phytotoxicity rating (0-100), IPOHE” value ([17]; 250 g ai/ha)?
Answer: 100

Question: What about the “Pre-emerge Herbicidal Activity, phytotoxicity rating (0-100), SETVI” value ([18]; 63 g ai/ha) of the same molecule?
Answer: 100

Question: And the “Pre-emerge Herbicidal Activity, phytotoxicity rating (0-100), SETVI” value ([18]; 250 g ai/ha)?
Answer: 100

Question: And the “Pre-emerge Herbicidal Activity, phytotoxicity rating (0-100), DIGSA” value ([19]; 63 g ai/ha)?
Answer: 90

Question: And the “Pre-emerge Herbicidal Activity, phytotoxicity rating (0-100), DIGSA” value ([19]; 250 g ai/ha)?
Answer: 100

Question: And the “Pre-emerge Herbicidal Activity, phytotoxicity rating (0-100), ECHCG” value ([20]; 63 g ai/ha)?
Answer: 85

Question: What about the “Pre-emerge Herbicidal Activity, phytotoxicity rating (0-100), ECHCG” value ([20]; 250 g ai/ha) of the same molecule?
Answer: 100

Question: And the “Pre-emerge Herbicidal Activity, phytotoxicity rating (0-100), AMBEL” value ([21]; 63 g ai/ha)?
Answer: 100

Question: What about the “Pre-emerge Herbicidal Activity, phytotoxicity rating (0-100), AMBEL” value ([21]; 250 g ai/ha) of the same molecule?
Answer: 100

Question: What about the “Pre-emerge Herbicidal Activity, phytotoxicity rating (0-100), SORHA” value ([22]; 63 g ai/ha) of the same molecule?
Answer: 60

Question: What about the “Pre-emerge Herbicidal Activity, phytotoxicity rating (0-100), SORHA” value ([22]; 250 g ai/ha) of the same molecule?
Answer: 100

Question: What about the “Pre-emerge phytotoxicity rating (0-100), crop damage, CORN” value ([23]; 63 g ai/ha) of the same molecule?
Answer: 50

Question: And the “Pre-emerge phytotoxicity rating (0-100), crop damage, CORN” value ([23]; 250 g ai/ha)?
Answer: 95

Question: And the “Pre-emerge phytotoxicity rating (0-100), crop damage, RICE” value ([24]; 63 g ai/ha)?
Answer: 95

Question: What about the “Pre-emerge phytotoxicity rating (0-100), crop damage, RICE” value ([24]; 250 g ai/ha) of the same molecule?
Answer: 100
